How the values were obtained:
[1] = Chemical stability by HPLC; assay type: physicochemical; settings: form B micronized
Procedure: Analyses were carried out on a Waters Xbridge C18 column (3.0×150 mm; 3.5 μm) using the following operating conditions: column temperature: 40° C.; sample temperature: 5° C.; flow rate: 0.45 mL/min; injection volume: 7 μL; UV detection at 260 nm; mobile phase composition comprised of Phase A: 10 mM ammonium acetate+0.1%, v/v trifluoroacetic acid in water and Phase B: acetonitrile, using the gradient defined by the parameters below (Table 2).
The reference and comparative samples were then analyzed by HPLC using the method described in General Procedures and by visual inspection.

[2] = system: BEAS2B cells; experiment: Poly I:C-induced ICAM-1 expression in BEAS2B cells; assay type: cell-based; settings: Homo sapiens, BEAS-2B, read-out: PolyIC/ICAM1 IC50 (BEAS2B)
Procedure: Poly I:C was used in these studies as a simple, RNA virus mimic. Poly I:C-Oligofectamine mixture (1 μg/mL Poly I:C, ±2% Oligofectamine, 25 μL; Invivogen Ltd., San Diego, Calif., and Invitrogen, Carlsbad, Calif., respectively) was transfected into BEAS2B cells (human bronchial epithelial cells, ATCC). Cells were pre-incubated with final concentrations of test compounds for 2 hr and the level of ICAM-1 expression on the cell surface was determined by cell-based ELISA. […]
The cells were washed with PBS-Tween (3×200 μL) and incubated with the secondary antibody (100 μL; HRP-conjugated anti-rabbit IgG, Dako Ltd., Glostrup, Denmark). […] The ICAM-1 signal was detected by reading […] the absorbance at 450 nm against a reference wavelength of 655 nm using a spectrophotometer. The cells were then washed with PBS-Tween (3×200 μL) and total cell numbers in each well were determined by reading absorbance at 595 nm after Crystal Violet staining (50 μL of a 2% solution in PBS) and elution by 1% SDS solution (100 μL) in distilled water. The measured OD 450-655 readings were corrected for cell number by dividing with the OD595 reading in each well. The inhibition of ICAM-1 expression was calculated at each concentration of test compound by comparison with vehicle control.

[3] = system: Differentiated U937 cells; experiment: Cell viability: MTT assay; assay type: cell-based, human; settings: 1 μg/mL
Procedure: Differentiated U937 cells were pre-incubated with each test compound (final concentration 1 μg/mL or 10 μg/mL in 200 μL media indicated below) under two protocols: the first for 4 hr in 5% FCS RPMI1640 media and the second in 10% FCS RPMI1640 media for 24 h. The supernatant was replaced with new media (200 μL) and MTT stock solution (10 μL, 5 mg/mL) was added to each well. After incubation for 1 hr the media were removed, DMSO (200 μL) was added to each well and the plates were shaken lightly for 1 hr prior to reading the absorbance at 550 nm. The percentage loss of cell viability was calculated for each well relative to vehicle (0.5% DMSO) treatment. Consequently an apparent increase in cell viability for drug treatment relative to vehicle is tabulated as a negative percentage.

[4] = Dynamic vapour sorption; assay type: physicochemical; settings: form B micronized
Procedure: Plots were obtained using a Surface Measurement Systems dynamic vapor sorption model DVS-1 using about 10 mg of the sample. The weight change was recorded with respect to atmospheric humidity at 25° C. and was determined using the following parameters: drying: 60 min under dry nitrogen; equilibrium: 60 min/step; data interval: 0.05% or 2.0 min. The relative humidity [RH %] measurement points were as follows:
The DVS isotherm plot for the micronized reference sample is illustrated in FIG. 4 and the DVS change in mass plot for the micronized reference sample is illustrated in FIG. 5. […] The product adsorbed up to 0.4% moisture depending on the atmospheric humidity.

[5] = system: LPS-induced neutrophil accumulation; experiment: LPS-induced neutrophil accumulation in mice; assay type: in vivo, Balb/c mice
Procedure: […] At T=0, mice were placed into an exposure chamber and exposed to LPS (7.0 mL, 0.5 mg/mL solution in PBS) for 30 min). After a further 8 hr the animals were anesthetized, their tracheas cannulated and BALF extracted by infusing and then withdrawing from their lungs 1.0 mL of PBS via the tracheal catheter. Total and differential white cell counts in the BALF samples were measured using a Neubaur haemocytometer. Cytospin smears of the BALF samples were prepared by centrifugation at 200 rpm for 5 min at RT and stained using a DiffQuik stain system (Dade Behring). Cells were counted using oil immersion microscopy. Data for neutrophil numbers in BAL are shown as mean±S.E.M. (standard error of the mean). The percentage inhibition of neutrophil accumulation was calculated for each treatment relative to vehicle treatment.

[6] = 0.05 mg/mL intra tracheal, 2 hr pre-dose

Which results are given for `Cc1ccc(-n2nc(C(C)(C)C)cc2NC(=O)Nc2ccc(Oc3ccnc(Nc4ccccc4)n3)c3ccccc23)cc1` [Compound (I), 1-(3-(tert-Butyl)-1-(p-tolyl)-1H-pyrazol-5-yl)-3-(4-((2-(phenylamino)pyrimidin-4-yl)oxy)naphthalen-1-yl)urea]?
chemical stability [1]: chemically stable; sensitivity to light [1]: some sensitivity to light was observed; Appearance ([1]; 40° C./75% RH, 1 week): off-white; Sum of impurities by HPLC ([1]; 40° C./75% RH, 1 week): 0.66%; Appearance ([1]; 40° C./75% RH, 4 weeks): off-white; Sum of impurities by HPLC ([1]; 40° C./75% RH, 4 weeks): 0.68%; Appearance ([1]; 50° C., 1 week): off-white; Sum of impurities by HPLC ([1]; 50° C., 1 week): 0.69%; Appearance ([1]; 50° C., 4 weeks): off-white; Sum of impurities by HPLC ([1]; 50° C., 4 weeks): 0.66%; Appearance ([1]; 70° C./75% RH, 1 week): off-white; Sum of impurities by HPLC ([1]; 70° C./75% RH, 1 week): 0.73%; Appearance ([1]; 80° C., 1 week): off-white; Sum of impurities by HPLC ([1]; 80° C., 1 week): 0.73%; Appearance ([1]; 0.3 day, ICH light): off-white; Sum of impurities by HPLC ([1]; 0.3 day, ICH light (700 W/m^2)): 1.44%; Appearance ([1]; RT/56% RH, 4 weeks): off-white; Sum of impurities by HPLC ([1]; RT/56% RH, 4 weeks): 0.67%; Appearance ([1]; RT/75% RH, 4 weeks): off-white; Sum of impurities by HPLC ([1]; RT/75% RH, 4 weeks): 0.67%; Appearance ([1]; RT/<5% RH, 4 weeks): off-white; Sum of impurities by HPLC ([1]; RT/<5% RH, 4 weeks): 0.67%; Appearance ([1]; T = zero): off-white; Sum of impurities by HPLC ([1]; T = zero): 0.66%; IC50 [2]: 10.2 nM; MTT Assay Cell viability in d-U937 Cells ([3]; 4 h): −ve (−ve and +ve indicate the value is below and above respectively, the no significant effect threshold defined as 30% inhibition at 1 μg/mL at the time point indicated.); MTT Assay Cell viability in d-U937 Cells ([3]; 24 h): −ve (−ve and +ve indicate the value is below and above respectively, the no significant effect threshold defined as 30% inhibition at 1 μg/mL at the time point indicated.); hygroscopic behavior (DVS) [4]: no hygroscopic behavior; moisture adsorbed (DVS) ([4]; depending on atmospheric humidity, 25° C.): up to 0.4%; % inhibition of neutrophil accumulation [5, 6]: 18%; Neutrophil numbers in BALF [5, 6]: 15.6 ± 2.1 ×10^5/mL; % inhibition of neutrophil accumulation ([5]; 0.2 mg/mL, 2 hr pre-dose): 48%; Neutrophil numbers in BALF ([5]; 0.2 mg/mL, 2 hr pre-dose): 9.8 ± 1.6 ×10^5/mL; % inhibition of neutrophil accumulation ([5]; 1.0 mg/mL, 2 hr pre-dose): 77%; Neutrophil numbers in BALF ([5]; 1.0 mg/mL, 2 hr pre-dose): 4.4 ± 0.89 ×10^5/mL; % inhibition of neutrophil accumulation ([5]; 1.0 mg/mL, 8 hr pre-dose): 48%; Neutrophil numbers in BALF ([5]; 1.0 mg/mL, 8 hr pre-dose): 9.9 ± 1.8 ×10^5/mL; % inhibition of neutrophil accumulation ([5]; 1.0 mg/mL, 12 hr pre-dose): 4%; Neutrophil numbers in BALF ([5]; 1.0 mg/mL, 12 hr pre-dose): 18.3 ± 2.3 ×10^5/mL; duration of action (time course experiment) ([5]; mice): long duration of action; effect on LPS-induced neutrophil accumulation ([5]; mice): dose dependent inhibition

Reference: patent US9108950B2, “1-pyrazolyl-3-(4-((2-anilinopyrimidin-4-yl)oxy)napththalen-1-yl) ureas as p38 MAP kinase inhibitors” (Respivert Ltd., priority 2011, dated 2015)
